# Source: patent US20210060030A1, “METHOD FOR TREATING CANCER” (Epizyme, Inc., priority 2014, published 2021)
# Entries after “also recorded” stand apart in the source; their conditions may differ.
# Tests used:
# [1] = system: advanced solid tumors or B cell lymphoma; assay: Phase 1 tumor assessments (anti-tumor activity); assay type: in vivo, human
# Method: (§1) PK/PD relationship was analyzed. Tumor assessments were performed every 8 weeks.
# ABC lymphoma cell lines = assay: Combination with drugs that target the BCR/PI3K pathways in ABC lymphoma cell lines; assay type: cell-based
# clinical = details: human, in vivo; for AUC(0-t): AUC0-12 hr
# Method: Blood samples for PK and skin biopsies for PD analysis were collected. PD samples were stained with H3K27me3 specific antibody and percent change from baseline in H3K27Me3 positive cells was determined. PK/PD relationship was analyzed. Tumor assessments were performed every 8 weeks.
# Doses administered were 100 mg BID as a suspension (n=3) or tablet (n=3) formulation and 200, 400, 800 and 1600 mg as tablet formulation.
# [2] = system: H3K27Me3 positive cells in the epidermis; assay: Skin biopsy H3K27Me3 immunohistochemistry and PK/PD model; assay type: in vivo, human
# Method: as §1
# Skin biopsies were collected predose (Cycle 1, Day 1) and predose prior to Cycle 2, Day 1 for immunohistochemistry analysis.
# An inhibitory Emax PK/PD model was fit to describe this relationship.
# [3] = assay type: in vivo; details: dose escalation up to 1600 mg BID
# Method: Phase 1 dose escalation is being performed to determine maximum tolerated dose (MTD) safety, PK, PD, and preliminary anti-tumor activity in patients (“pts”) with B cell lymphoma or advanced solid tumors.
# as §1
compound,measurement,setting,value
CCN(c1cc(-c2ccc(CN3CCOCC3)cc2)cc(C(=O)NCc2c(C)cc(C)[nH]c2=O)c1C)C1CCOCC1 [EPZ-6438],Maximum tumor change,[1]; 100 mg dose group,−78%
same,Maximum tumor change,[1]; 200mg dose group,−87%
same,Partial responses in evaluable NHL pts,"[1]; 1 transformed DLBCL, 100mg BID, and 1 PMBL, 200mg BID",2 of 4
same,effect of combination with drugs that target the BCR/PI3K pathways,ABC lymphoma cell lines,no effect observed
same,AUC0-12 hr,clinical; 100 mg,337 ng·h/mL
same,Tmax,clinical; 100 mg,1.0 h
same,AUC(0-t),clinical; 100 mg,467 ng·h/mL
same,Tmax,"clinical; 100 mg, Tmax",0.5 h
same,AUC(0-t),clinical; 200 mg,1250 ng·h/mL
same,Cmax,"clinical; 200 mg, Cmax",363 ng/mL
same,Tmax,"clinical; 200 mg, Tmax",1 h
same,half-life,"clinical; 200 mg, t1/2",3.42 h
same,AUC(0-t),clinical; 400 mg,1720 ng·h/mL
same,Cmax,"clinical; 400 mg, Cmax",476 ng/mL
same,Tmax,"clinical; 400 mg, Tmax",2 h
same,half-life,"clinical; 400 mg, t1/2",2.88 h
same,AUC,clinical; 800 mg,4550 ng·h/mL
same,AUC(0-t),clinical; 800 mg,7800 ng·h/mL
same,Cmax,"clinical; 800 mg, Cmax",1730 ng/mL
same,Tmax,"clinical; 800 mg, Tmax",2 h
same,half-life,"clinical; 800 mg, t1/2",3.81 h
same,Cmax,clinical; 1600 mg,4125 ng/mL
same,AUC(0-t),clinical; 1600 mg,18900 ng·h/mL
same,Tmax,"clinical; 1600 mg, Tmax",2 h
same,half-life,"clinical; 1600 mg, t1/2",3.67 h
same,half-life,clinical; mean EPZ-6438 terminal half-life (t½),3 to 6 h
same,Tmax,"clinical; po, Tmax",1 to 2 h
same,half-life,"clinical; po, half-life",~4 h
same,half-life,clinical; terminal half-life (t½),3 to 6 h
same,maximal inhibition (Imax) of H3K27Me3 positive cells in skin,[2]; inhibitory Emax PK/PD model estimate,−44.4%
same,exposure associated with 50% of maximal inhibition (IC50),"[2]; inhibitory Emax PK/PD model estimate, AUC exposure",487 ng·h/mL
same,exposure associated with 90% of maximal inhibition (IC90),"[2]; model predicted, AUC exposure",4421 ng·h/mL
same,H3K27Me3 positive cells in skin,"[2]; skin biopsies, Cycle 2 Day 1 vs predose baseline",exposure-related decrease; also recorded: consistent decrease
same,MTD,[3],has not been reached
